Activity calls are given as the source filed them. The rule behind the calls is not given here.
System: CCRIS mutagenicity, Ames/micronucleus/aberration tests
Assay: CCRIS mutagenicity studies
[1] = Test System: AMES SALMONELLA TYPHIMURIUM, Strain/Indicator: TA98, Metabolic Activation: NONE, Method: PREINCUBATION
[2] = Test System: AMES SALMONELLA TYPHIMURIUM, Strain/Indicator: TA100, Metabolic Activation: NONE, Method: PREINCUBATION
[3] = Test System: AMES SALMONELLA TYPHIMURIUM, Strain/Indicator: TA1535, Metabolic Activation: NONE, Method: PREINCUBATION
[4] = Test System: AMES SALMONELLA TYPHIMURIUM, Strain/Indicator: TA1537, Metabolic Activation: NONE, Method: PREINCUBATION

Question: `CC(C)(C)C(=O)C(Oc1ccc(Cl)cc1)n1ccnc1` (stereo unspecified) was tested. Which mutagenic call [1] did it give?
Answer: The mutagenic call was “inactive; negative”.

Question: And the mutagenic call (Test System: AMES SALMONELLA TYPHIMURIUM, Strain/Indicator: TA98, Metabolic Activation: RAT, LIVER, S-9, PCB, Method: PREINCUBATION)?
Answer: The mutagenic call was “inactive; negative”.

Question: What about the mutagenic call [2] of the same compound?
Answer: Its mutagenic call is “inactive; negative”.

Question: And the mutagenic call (Test System: AMES SALMONELLA TYPHIMURIUM, Strain/Indicator: TA100, Metabolic Activation: RAT, LIVER, S-9, PCB, Method: PREINCUBATION)?
Answer: The mutagenic call was “inactive; negative”.

Question: What about the mutagenic call [3] of the same compound?
Answer: Its mutagenic call is “inactive; negative”.

Question: And the mutagenic call (Test System: AMES SALMONELLA TYPHIMURIUM, Strain/Indicator: TA1535, Metabolic Activation: RAT, LIVER, S-9, PCB, Method: PREINCUBATION)?
Answer: The mutagenic call was “inactive; negative”.

Question: And the mutagenic call [4]?
Answer: Its mutagenic call is “inactive; negative”.

Question: And the mutagenic call (Test System: AMES SALMONELLA TYPHIMURIUM, Strain/Indicator: TA1537, Metabolic Activation: RAT, LIVER, S-9, PCB, Method: PREINCUBATION)?
Answer: The mutagenic call was “inactive; negative”.

Question: And the mutagenic call (Test System: AMES SALMONELLA TYPHIMURIUM, Strain/Indicator: TA1538, Metabolic Activation: NONE, Method: PREINCUBATION)?
Answer: Its mutagenic call is “inactive; negative”.

Question: What about the mutagenic call (Test System: AMES SALMONELLA TYPHIMURIUM, Strain/Indicator: TA1538, Metabolic Activation: RAT, LIVER, S-9, PCB, Method: PREINCUBATION) of the same compound?
Answer: Its mutagenic call is “inactive; negative”.

Question: What about the mutagenic call (Test System: Ames Salmonella typhimurium, Strain/Indicator: TA98, Metabolic Activation: None, Method: Plate incorporation) of the same compound?
Answer: Its mutagenic call is “inactive; negative”.

Question: And the mutagenic call (Test System: Ames Salmonella typhimurium, Strain/Indicator: TA98, Metabolic Activation: None, Method: Preincubation)?
Answer: The mutagenic call was “inactive; negative”.

Question: What about the mutagenic call (Test System: Ames Salmonella typhimurium, Strain/Indicator: TA98, Metabolic Activation: Rat, Liver, S-9, Aroclor, Method: Plate incorporation) of the same compound?
Answer: Its mutagenic call is “inactive; negative”.

Question: What about the mutagenic call (Test System: Ames Salmonella typhimurium, Strain/Indicator: TA98, Metabolic Activation: Rat, Liver, S-9, Aroclor, Method: Preincubation) of the same compound?
Answer: Its mutagenic call is “inactive; negative”.

Question: What about the mutagenic call (Test System: Ames Salmonella typhimurium, Strain/Indicator: TA100, Metabolic Activation: None, Method: Plate incorporation) of the same compound?
Answer: The mutagenic call was “inactive; negative”.

Question: What about the mutagenic call (Test System: Ames Salmonella typhimurium, Strain/Indicator: TA100, Metabolic Activation: None, Method: Preincubation) of the same compound?
Answer: Its mutagenic call is “inactive; negative”.

Question: And the mutagenic call (Test System: Ames Salmonella typhimurium, Strain/Indicator: TA100, Metabolic Activation: Rat, Liver, S-9, Aroclor, Method: Plate incorporation)?
Answer: The mutagenic call was “inactive; negative”.

Question: What about the mutagenic call (Test System: Ames Salmonella typhimurium, Strain/Indicator: TA100, Metabolic Activation: Rat, Liver, S-9, Aroclor, Method: Preincubation) of the same compound?
Answer: The mutagenic call was “inactive; negative”.

Question: What about the mutagenic call (Test System: Ames Salmonella typhimurium, Strain/Indicator: TA1535, Metabolic Activation: None, Method: Plate incorporation) of the same compound?
Answer: The mutagenic call was “inactive; negative”.

Question: What about the mutagenic call (Test System: Ames Salmonella typhimurium, Strain/Indicator: TA1535, Metabolic Activation: None, Method: Preincubation) of the same compound?
Answer: Its mutagenic call is “inactive; negative”.

Question: What about the mutagenic call (Test System: Ames Salmonella typhimurium, Strain/Indicator: TA1535, Metabolic Activation: Rat, Liver, S-9, Aroclor, Method: Plate incorporation) of the same compound?
Answer: Its mutagenic call is “inactive; negative”.

Question: And the mutagenic call (Test System: Ames Salmonella typhimurium, Strain/Indicator: TA1535, Metabolic Activation: Rat, Liver, S-9, Aroclor, Method: Preincubation)?
Answer: Its mutagenic call is “inactive; negative”.

Question: And the mutagenic call (Test System: Ames Salmonella typhimurium, Strain/Indicator: TA1537, Metabolic Activation: None, Method: Plate incorporation)?
Answer: Its mutagenic call is “inactive; negative”.

Question: What about the mutagenic call (Test System: Ames Salmonella typhimurium, Strain/Indicator: TA1537, Metabolic Activation: None, Method: Preincubation) of the same compound?
Answer: Its mutagenic call is “inactive; negative”.

Question: What about the mutagenic call (Test System: Ames Salmonella typhimurium, Strain/Indicator: TA1537, Metabolic Activation: Rat, Liver, S-9, Aroclor, Method: Plate incorporation) of the same compound?
Answer: Its mutagenic call is “inactive; negative”.

Question: What about the mutagenic call (Test System: Ames Salmonella typhimurium, Strain/Indicator: TA1537, Metabolic Activation: Rat, Liver, S-9, Aroclor, Method: Preincubation) of the same compound?
Answer: Its mutagenic call is “inactive; negative”.

Question: What about the mutagenic call (Test System: E. COLI, Strain/Indicator: WP2 UVRA, Metabolic Activation: NONE, Method: PREINCUBATION) of the same compound?
Answer: The mutagenic call was “inactive; negative”.

Question: And the mutagenic call (Test System: E. coli, Strain/Indicator: WP2uvrA (pKM101), Metabolic Activation: None, Method: Plate incorporation)?
Answer: Its mutagenic call is “inactive; negative”.

Question: And the mutagenic call (Test System: E. coli, Strain/Indicator: WP2uvrA (pKM101), Metabolic Activation: None, Method: Preincubation)?
Answer: Its mutagenic call is “inactive; negative”.

Question: And the mutagenic call (Test System: E. coli, Strain/Indicator: WP2uvrA (pKM101), Metabolic Activation: Rat, Liver, S-9, Aroclor, Method: Plate incorporation)?
Answer: Its mutagenic call is “inactive; negative”.

Question: What about the mutagenic call (Test System: E. coli, Strain/Indicator: WP2uvrA (pKM101), Metabolic Activation: Rat, Liver, S-9, Aroclor, Method: Preincubation) of the same compound?
Answer: The mutagenic call was “inactive; negative”.

Question: What about the mutagenic call (Test System: In vitro micronucleus, Strain/Indicator: Human lymphocytes, Metabolic Activation: None) of the same compound?
Answer: The mutagenic call was “inactive; negative”.

Question: And the mutagenic call (Test System: In vivo micronucleus, Species: Mouse, Strain/Sex: ICR/Male, Route: Oral (gavage))?
Answer: Its mutagenic call is “inactive; negative”.

Question: And the mutagenic call (Test System: Mouse lymphoma L5178Y/TK+/- cells, Strain/Indicator: WP2 uvrA (pKM101), Metabolic Activation: Rat, Liver, S-9, Aroclor 1254, Method: Suspension/plate)?
Answer: The mutagenic call was “inactive; negative”.

Question: What about the mutagenic call (Test System: UDS Rat hepatocytes, Strain/Indicator: Thymidine incorporation, Method: In vivo - in vitro, measurement by autoradiography) of the same compound?
Answer: Its mutagenic call is “active; positive”.

Question: With `O=CNc1ccc(Oc2ccc(Cl)cc2)cc1` as the compound, how does the mutagenic call (Test System: AMES SALMONELLA TYPHIMURIUM, Strain/Indicator: TA100, Metabolic Activation: NONE, Method: STANDARD PLATE) read?
Answer: Its mutagenic call is “inactive; negative”.

Question: What about the mutagenic call (Test System: AMES SALMONELLA TYPHIMURIUM, Strain/Indicator: TA100, Metabolic Activation: RAT, LIVER, S-9, KANECLOR 500, Method: STANDARD PLATE) of the same compound?
Answer: The mutagenic call was “active; positive”.

Question: `CCOc1cc(C=O)ccc1O` was tested. Which mutagenic call (Test System: AMES SALMONELLA TYPHIMURIUM, Strain/Indicator: TA97, Metabolic Activation: NONE, Method: PREINCUBATION) did it give?
Answer: The mutagenic call was “inactive; negative”.

Question: What about the mutagenic call (Test System: AMES SALMONELLA TYPHIMURIUM, Strain/Indicator: TA97, Metabolic Activation: RAT, LIVER, S-9, AROCLOR 1254, Method: PREINCUBATION) of the same compound?
Answer: The mutagenic call was “inactive; negative”.

Question: And the mutagenic call [1]?
Answer: Its mutagenic call is “inactive; negative”.

Question: And the mutagenic call (Test System: AMES SALMONELLA TYPHIMURIUM, Strain/Indicator: TA98, Metabolic Activation: RAT, LIVER, S-9, PHENOBARBITAL AND BETA-NAPHTHOFLAVONE, Method: PREINCUBATION)?
Answer: Its mutagenic call is “inactive; negative”.

Question: What about the mutagenic call [2] of the same compound?
Answer: Its mutagenic call is “inactive; negative”.

Question: And the mutagenic call (Test System: AMES SALMONELLA TYPHIMURIUM, Strain/Indicator: TA100, Metabolic Activation: RAT, LIVER, S-9, PHENOBARBITAL AND BETA-NAPHTHOFLAVONE, Method: PREINCUBATION)?
Answer: Its mutagenic call is “inactive; negative”.

Question: And the mutagenic call (Test System: AMES SALMONELLA TYPHIMURIUM, Strain/Indicator: TA102, Metabolic Activation: NONE, Method: PREINCUBATION)?
Answer: Its mutagenic call is “inactive; negative”.

Question: What about the mutagenic call (Test System: AMES SALMONELLA TYPHIMURIUM, Strain/Indicator: TA102, Metabolic Activation: RAT, LIVER, S-9, AROCLOR 1254, Method: PREINCUBATION) of the same compound?
Answer: The mutagenic call was “inactive; negative”.

Question: What about the mutagenic call (Test System: AMES SALMONELLA TYPHIMURIUM, Strain/Indicator: TA102, Metabolic Activation: RAT, LIVER, S-9, PHENOBARBITAL AND BETA-NAPHTHOFLAVONE, Method: PREINCUBATION) of the same compound?
Answer: The mutagenic call was “inactive; negative”.

Question: And the mutagenic call (Test System: AMES SALMONELLA TYPHIMURIUM, Strain/Indicator: TA104, Metabolic Activation: NONE, Method: PREINCUBATION)?
Answer: The mutagenic call was “inactive; negative”.

Question: What about the mutagenic call (Test System: AMES SALMONELLA TYPHIMURIUM, Strain/Indicator: TA104, Metabolic Activation: RAT, LIVER, S-9, PHENOBARBITAL AND BETA-NAPHTHOFLAVONE, Method: PREINCUBATION) of the same compound?
Answer: The mutagenic call was “inactive; negative”.

Question: What about the mutagenic call [3] of the same compound?
Answer: The mutagenic call was “inactive; negative”.

Question: What about the mutagenic call (Test System: AMES SALMONELLA TYPHIMURIUM, Strain/Indicator: TA1535, Metabolic Activation: RAT, LIVER, S-9, PHENOBARBITAL AND BETA-NAPHTHOFLAVONE, Method: PREINCUBATION) of the same compound?
Answer: Its mutagenic call is “inactive; negative”.

Question: What about the mutagenic call [4] of the same compound?
Answer: Its mutagenic call is “inactive; negative”.

Question: And the mutagenic call (Test System: AMES SALMONELLA TYPHIMURIUM, Strain/Indicator: TA1537, Metabolic Activation: RAT, LIVER, S-9, PHENOBARBITAL AND BETA-NAPHTHOFLAVONE, Method: PREINCUBATION)?
Answer: Its mutagenic call is “inactive; negative”.

Question: And the mutagenic call (Test System: E. COLI, Strain/Indicator: WP2UVRA/PKM101, Metabolic Activation: NONE, Method: PREINCUBATION)?
Answer: The mutagenic call was “inactive; negative”.

Question: And the mutagenic call (Test System: E. COLI, Strain/Indicator: WP2UVRA/PKM101, Metabolic Activation: RAT, LIVER, S-9, PHENOBARBITAL AND BETA-NAPHTHOFLAVONE, Method: PREINCUBATION)?
Answer: Its mutagenic call is “inactive; negative”.

Question: What about the mutagenic call (Test System: E. COLI, Strain/Indicator: WP2UVRA, Metabolic Activation: NONE, Method: PREINCUBATION) of the same compound?
Answer: The mutagenic call was “inactive; negative”.

Question: What about the mutagenic call (Test System: E. COLI, Strain/Indicator: WP2UVRA, Metabolic Activation: RAT, LIVER, S-9, PHENOBARBITAL AND BETA-NAPHTHOFLAVONE, Method: PREINCUBATION) of the same compound?
Answer: The mutagenic call was “inactive; negative”.

— PubChem BioAssay AID1259407 (Chemical Carcinogenesis Research Information System (CCRIS), 2018)
